Source: patent publication US9044474B2, “Compositions and methods for increasing drug efficacy in cancer” (The Ohio State University, priority 2010, dated 2015)
Structures can show the parent of a compound that is named as a salt.

System: IRE1-ASK1-TRAF2 complex
Experiment: Co-immunoprecipitation of IRE1-ASK1-TRAF2 complex in 697 cells
Format: cell-based
Description: Proteins extracted from whole cell lysates (50 μg/lane) were separated on polyacrylamide gels and transferred on nitrocellulose membrane. Antibodies used for immunoblots included LC3, IRE1α, TRAF2, PI3K III, ATG4C, ATG5-12, UVRAG, Beclin-1 (Cell Signaling, Boston, Mass.), GAPDH, Nrf2, ASK1, ULK1 (Santa Cruz Biotechnology), and Bif-1, ATG14-Barkor (Sigma-Aldrich, St Louis, Mo.). Species-appropriate secondary antibodies were obtained from BioRad Laboratories (Hercules, Calif.). Following antibody incubations, proteins were detected using a chemiluminescent substrate (BioRad Laboratories). For co-immunoprecipitations, TrueBlot beads (eBiosciences, San Diego, Calif.) and One-hour IP Western kit (GenScript, Piscataway, N.J.) were used according to manufacturer protocols. Quantification was done using FluorChem Q (Alpha Innotech, San Leandro Calif.).

Question: `CN1CC[C@H](c2c(O)cc(O)c3c(=O)cc(-c4ccccc4Cl)oc23)[C@H](O)C1` [flavopiridol, (cis-5,7-dihydroxy-2-(2-chlorophenyl)-8-[4-(3-hydroxy-1-methyl)-piperidin-yl]-1-benzopyran-4-one)hydrochloride] was tested. Which “ASK1 and IRE1 protein in TRAF2 co-immunoprecipitates” value did it give?
Answer: increased levels of ASK1 and IRE1 protein in TRAF2 co-immunoprecipitates
